Measured values: patent US10077261B2, “Imidazolin-5-one derivative useful as FASN inhibitors for the treatment of cancer” (Janssen Pharmaceutica NV, priority 2012, dated 2018)

Columns and labels:
[1] = biological target: T1, hFASN enzyme (full length) (Homo sapiens, UniProt P49327); test: Fatty Acid Synthase (FASN) inhibition scintillation proximity assay; type: biochemical; conditions: for inhibition at 10 µM: read-out: Human FASN % inhibition @ 10 μM, 10 μM test compound; for IC50: read-out: Human FASN pIC50 (converted)
T1 construct: 10 μL hFASN enzyme (full length, 300 ng, purified in house); made in house
In short: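 Compounds at 0.01–30 μM were mixed with 300 ng purified full-length enzyme in 100 mM KH2PO4 pH 7.5, 1 mM DTT. Substrates ³H-acetyl-CoA and malonyl-CoA were then converted, and bead addition stopped the reaction. Signal was normalised to low and high plate controls and fitted by 4-parameter nonlinear regression.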

A2780 ovarian cells [2] = test: A2780 ovarian cell proliferation assay in lipid reduced medium, with palmitate (MTT); type: cell-based; conditions: Homo sapiens, A2780, 96 h; read-out: pIC50 A2780 Ovarian Cell, With Palmitate (converted)
Method: (§1) The biological assays described below correspond to comparative assays for ovarian cell proliferation. […] Compounds active in the absence of palmitate would not be expected to be active in the control.
(§2) 2500 cells were seeded in a 96-well clear well plate in 200 μL RPMI1640 with 10% Fetal Calf Serum (Hyclone), and incubated at 37° C., 5% CO2. Blanks were wells without cells. The next day the culture medium was aspirated and replaced by 160 μL culture medium with 10% Lipid-Reduced Serum (LRS, Hyclone). 20 μL test compound (at concentrations of 30 μM, 10 μM, 3 μM, 1 μM, 0.30 μM, 0.10 μM, 0.03 μM and 0.01 μM)/DMSO dilution followed by 20 μL palmitate-BSA solution were added to a final concentrations of 0.2% DMSO, 25 μM palmitate (Sigma, P0500, 10 mM stock solution in ethanol) 0.2% fatty-acid-free BSA, 0.25% ethanol. After 96 h incubation, an MTT assay was performed. The absorbance was measured at 544 nm on a SPECTRAMAX brand microplate reader (Molecular Devices).
A best fit curve was fitted by a minimum sum of squares method, plotting Controlmin versus test compound concentration.
(§3) Representative compounds of the present invention were tested according to the procedure as described in Biological Example 3 above, with results as listed in Table 8, below.

A2780 ovarian cells [3] = test: A2780 ovarian cell proliferation assay in lipid reduced medium, without palmitate (MTT); type: cell-based; conditions: Homo sapiens, A2780, 96 h; read-out: pIC50 A2780 Ovarian Cell, Without Palmitate (converted)
Method: as §1
as §2, with “ethanol-BSA” for “palmitate-BSA”, “DMSO,” for “DMSO, 25 μM palmitate (Sigma, P0500, 10 mM stock solution in ethanol)”, “incubation” for “incubation,”
where mLC and mHC were the means of the low control wells and high control wells on the plate, after manual exclusion of outliers. A plot of Controlmin versus test compound concentration was fitted to a 4-parameter logistic curve using a non-linear least squares regression method.
as §3

T1 sequence (P49327 whole entry): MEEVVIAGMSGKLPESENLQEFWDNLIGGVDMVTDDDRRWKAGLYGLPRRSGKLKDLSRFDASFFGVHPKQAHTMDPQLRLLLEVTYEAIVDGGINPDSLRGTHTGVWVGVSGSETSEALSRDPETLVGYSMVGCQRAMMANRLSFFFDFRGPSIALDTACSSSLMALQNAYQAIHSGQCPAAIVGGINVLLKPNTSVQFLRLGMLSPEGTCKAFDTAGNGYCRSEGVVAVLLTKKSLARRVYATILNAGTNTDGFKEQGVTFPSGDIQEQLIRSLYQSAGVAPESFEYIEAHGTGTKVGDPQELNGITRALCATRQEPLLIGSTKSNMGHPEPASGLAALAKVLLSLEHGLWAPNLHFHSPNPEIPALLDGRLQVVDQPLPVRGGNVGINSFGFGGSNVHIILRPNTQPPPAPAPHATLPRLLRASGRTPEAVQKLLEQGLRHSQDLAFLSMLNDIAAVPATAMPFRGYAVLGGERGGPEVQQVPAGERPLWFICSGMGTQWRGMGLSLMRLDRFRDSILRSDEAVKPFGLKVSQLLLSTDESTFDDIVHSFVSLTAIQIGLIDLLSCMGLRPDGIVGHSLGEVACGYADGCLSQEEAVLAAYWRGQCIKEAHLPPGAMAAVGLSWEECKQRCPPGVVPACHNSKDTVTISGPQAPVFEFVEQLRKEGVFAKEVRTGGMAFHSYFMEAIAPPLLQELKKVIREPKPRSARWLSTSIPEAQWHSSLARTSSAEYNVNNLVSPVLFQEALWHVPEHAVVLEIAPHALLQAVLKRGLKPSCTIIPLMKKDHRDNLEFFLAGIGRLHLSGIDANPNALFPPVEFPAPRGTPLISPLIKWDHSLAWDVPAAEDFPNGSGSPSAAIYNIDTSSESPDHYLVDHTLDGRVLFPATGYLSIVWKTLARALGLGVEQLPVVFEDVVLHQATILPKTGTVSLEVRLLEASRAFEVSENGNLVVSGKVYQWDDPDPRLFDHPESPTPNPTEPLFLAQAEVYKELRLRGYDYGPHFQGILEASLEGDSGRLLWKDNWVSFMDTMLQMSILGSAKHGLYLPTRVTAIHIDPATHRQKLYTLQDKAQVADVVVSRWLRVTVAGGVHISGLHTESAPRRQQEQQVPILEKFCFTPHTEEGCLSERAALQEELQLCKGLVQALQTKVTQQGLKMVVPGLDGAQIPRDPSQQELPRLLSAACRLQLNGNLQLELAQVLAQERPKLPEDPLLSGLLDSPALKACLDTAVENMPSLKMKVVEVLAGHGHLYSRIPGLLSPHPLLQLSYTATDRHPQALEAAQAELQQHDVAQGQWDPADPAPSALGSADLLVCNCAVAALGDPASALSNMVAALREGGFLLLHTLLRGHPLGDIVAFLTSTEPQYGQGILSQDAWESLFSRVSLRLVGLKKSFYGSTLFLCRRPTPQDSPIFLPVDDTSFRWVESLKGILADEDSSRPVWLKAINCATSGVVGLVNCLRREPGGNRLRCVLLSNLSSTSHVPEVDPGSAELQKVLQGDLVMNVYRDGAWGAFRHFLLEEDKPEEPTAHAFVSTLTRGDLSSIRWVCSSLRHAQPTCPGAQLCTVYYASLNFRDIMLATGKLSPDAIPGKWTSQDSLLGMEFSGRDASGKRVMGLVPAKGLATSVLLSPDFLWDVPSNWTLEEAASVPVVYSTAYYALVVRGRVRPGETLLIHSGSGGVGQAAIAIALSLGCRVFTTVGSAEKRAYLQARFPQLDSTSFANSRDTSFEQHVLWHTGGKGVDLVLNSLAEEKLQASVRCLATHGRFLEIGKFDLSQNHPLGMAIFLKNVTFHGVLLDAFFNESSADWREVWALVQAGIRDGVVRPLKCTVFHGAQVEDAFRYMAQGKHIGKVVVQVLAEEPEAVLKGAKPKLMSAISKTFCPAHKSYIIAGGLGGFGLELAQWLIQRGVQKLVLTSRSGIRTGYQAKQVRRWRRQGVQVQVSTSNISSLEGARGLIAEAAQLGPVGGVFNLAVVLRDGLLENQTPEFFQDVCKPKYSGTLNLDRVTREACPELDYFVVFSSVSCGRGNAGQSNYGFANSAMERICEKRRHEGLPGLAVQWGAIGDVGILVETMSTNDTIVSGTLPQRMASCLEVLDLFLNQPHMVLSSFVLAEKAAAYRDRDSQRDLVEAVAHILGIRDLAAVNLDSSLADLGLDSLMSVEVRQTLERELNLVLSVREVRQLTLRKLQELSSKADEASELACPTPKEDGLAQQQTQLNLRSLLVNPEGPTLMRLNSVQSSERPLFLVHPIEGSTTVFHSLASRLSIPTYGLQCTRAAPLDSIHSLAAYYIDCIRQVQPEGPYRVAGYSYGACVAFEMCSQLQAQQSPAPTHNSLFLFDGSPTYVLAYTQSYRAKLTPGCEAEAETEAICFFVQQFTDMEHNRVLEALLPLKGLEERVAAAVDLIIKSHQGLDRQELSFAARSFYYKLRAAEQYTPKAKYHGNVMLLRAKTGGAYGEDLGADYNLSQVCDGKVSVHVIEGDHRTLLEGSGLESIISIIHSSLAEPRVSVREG

Row | Structure (SMILES) | inhibition at 10 µM [1] | IC50 [1] | IC50 (A2780 ovarian cells [2]) | IC50 (A2780 ovarian cells [3])
1 | COc1ccc2cc(-c3ccc(C4=NC5(CC5)C(=O)N4CC4CN(C(=O)C5(O)CC5)C4)c(F)c3)ccc2c1 [compound 366, 5-(2-fluoro-4-(6-methoxynaphthalen-2-yl)phenyl)-6-((1-(1-hydroxycyclopropanecarbonyl)azetidin-3-yl)methyl)-4,6-diazaspiro[2.4]hept-4-en-7-one] | 89% | 0.0617 µM | 0.562 µM | ~0.00562 µM
2 | Cc1ccc2c(-c3ccc(C4=NC5(CC5)C(=O)N4CC4CN(C(=O)C5(C)CC5)C4)c(C)c3)cccc2n1 [compound 603, 6-({1-[(1-Methylcyclopropyl)carbonyl]azetidin-3-yl}methyl)-5-[2-methyl-4-(2-methylquinolin-5-yl)phenyl]-4,6-diazaspiro[2.4]hept-4-en-7-one] | 87% | 1.15 µM | > 10 µM | ~3.31 µM
3 | CCCc1ccc(-c2ccc(C3=NC4(CC4)C(=O)N3CC3CN(C(=O)C4CC4)C3)cc2)cn1 [compound 795, 6-((1-(cyclopropanecarbonyl)azetidin-3-yl)methyl)-5-(4-(6-propylpyridin-3-yl)phenyl)-4,6-diazaspiro[2.4]hept-4-en-7-one] | 34% | > 10 µM | > 10 µM | > 10 µM
4 | O=C(C1CC1)N1CC(CN2C(=O)C3(CC3)N=C2c2ccc(-c3ccc(-c4cnn(C5CCC5)c4)cc3)cc2F)C1 [compound 329, 5-(4′-(1-cyclobutyl-1H-pyrazol-4-yl)-3-fluoro-[1,1′-biphenyl]-4-yl)-6-((1-(cyclopropanecarbonyl)azetidin-3-yl)methyl)-4,6-diazaspiro[2.4]hept-4-en-7-one] | – | – | 3.09 µM | 0.0141 µM
5 | Cc1cc(-c2ccc(-c3ccnn3CC3CC3)cc2)ccc1C1=NC2(CC2)C(=O)N1CC1CN(C(=O)C2(C)CC2)C1 [compound 786, 5-(4′-(1-(cyclopropylmethyl)-1H-pyrazol-5-yl)-3-methyl-[1,1′-biphenyl]-4-yl)-6-((1-(1-methylcyclopeopanecarbonyl)azetidin-3-yl)methyl)-4,6-diazaspiro[2.4]hept-4-en-7-one] | 31% | > 10 µM | 5.89 µM | 6.76 µM
6 | CC(C)(O)c1ccc(-c2ccc(C3=NC4(CC4)C(=O)N3CC3CN(C(=O)C4CC4)C3)cc2)nc1 [compound 794, 6-((1-(cyclopropanecarbonyl)azetidin-3-yl)methyl)-5-(4-(5-(2-hydroxypropan-2-yl)pyridin-2-yl)phenyl)-4,6-diazaspiro[2.4]hept-4-en-7-one] | -15% | > 10 µM | > 10 µM | > 10 µM
7 | O=C(C1CC1)N1CC[C@@H](CN2C(=O)C3(CC3)N=C2c2ccc(-c3ccc4occc4c3)cc2)C1 [compound 58, (R)-5-(4-(Benzofuran-5-yl)phenyl)-6-((1-(cyclopropanecarbonyl)pyrrolidin-3-yl)methyl)-4,6-diazaspiro[2.4]hept-4-en-7-one] | – | – | > 10 µM | 0.339 µM
8 | Cn1ncc2cc(-c3ccc(C4=NC5(CCCC5)C(=O)N4C[C@@H]4CCN(C(=O)C5CC5)C4)cc3)ccc21 [compound 35, 3-{[(3R)-1-(Cyclopropylcarbonyl)pyrrolidin-3-yl]methyl}-2-[4-(1-methyl-1H-indazol-5-yl)phenyl]-1,3-diazaspiro[4.4]non-1-en-4-one] | – | – | > 10 µM | 0.479 µM
9 | O=C(C1CC1)N1CC[C@@H](CN2C(=O)C3(CC3)N=C2c2ccc(-c3ccc4scnc4c3)cc2)C1 [compound 71, 5-[4-(1,3-Benzothiazol-5-yl)phenyl]-6-{[(3R)-1-(cyclopropylcarbonyl)pyrrolidin-3-yl]methyl}-4,6-diazaspiro[2.4]hept-4-en-7-one] | – | – | > 10 µM | 0.0363 µM
10 | Cc1cc(-c2ccc3nn(C)c(C#N)c3c2)ccc1C1=NC2(CC2)C(=O)N1CC1CN(C(=O)C2CC2)C1 [compound 610] | 87% | 1.05 µM | 4.57 µM | 2.88 µM
11 | Cn1ncc2cc(-c3ccc(C4=NC5(CC5)C(=O)N4C[C@@H]4CCN(C(=O)C5CC5)C4)cc3)ccc21 [compound 28, 6-{[(3R)-1-(Cyclopropylcarbonyl)pyrrolidin-3-yl]methyl}-5-[4-(1-methyl-1H-indazol-5-yl)phenyl]-4,6-diazaspiro[2.4]hept-4-en-7-one] | – | – | > 10 µM | 0.132 µM
12 | O=C(C1CC1)N1CC[C@@H](CN2C(=O)C3(CC3)N=C2c2ccc(-c3ccc4cnccc4c3)cc2)C1 [compound 47, 6-{[(3R)-1-(Cyclopropylcarbonyl)pyrrolidin-3-yl]methyl}-5-(4-isoquinolin-6-ylphenyl)-4,6-diazaspiro[2.4]hept-4-en-7-one] | – | – | > 10 µM | 0.00776 µM
13 | O=C(C1CC1)N1CC[C@@H](CN2C(=O)C3(CC3)N=C2c2ccc(-c3cccc(Cl)c3)cc2)C1 [compound 112, 5-(3′-Chlorobiphenyl-4-yl)-6-{[(3R)-1-(cyclopropylcarbonyl)pyrrolidin-3-yl]methyl}-4,6-diazaspiro[2.4]hept-4-en-7-one] | – | – | > 10 µM | 1.02 µM
14 | N#CCCn1cc2cc(-c3ccc(C4=NC5(CC5)C(=O)N4CC4CN(C(=O)C5CC5)C4)cc3)ccc2n1 [compound 842, 3-(5-(4-(6-((1-(cyclopropanecarbonyl)azetidin-3-yl)methyl)-7-oxo-4,6-diazaspiro[2.4]hept-4-en-5-yl)phenyl)-2H-indazol-2-yl)propanenitrile] | – | – | > 3.02 µM | > 3.02 µM
15 | Cc1cc(-c2ccc3c(c2)c(C#N)nn3C)ccc1C1=NC2(CC2)C(=O)N1CC1CN(C(=O)C2CC2)C1 [compound 836, 5-(4-(6-((1-(cyclopropanecarbonyl)azetidin-3-yl)methyl)-7-oxo-4,6-diazaspiro[2.4]hept-4-en-5-yl)-3-methylphenyl)-1-methyl-1H-indazole-3-carbonitrile] | – | – | > 3.02 µM | 0.372 µM
16 | O=C(C1CC1)N1CC[C@H](CN2C(=O)C3(CC3)N=C2c2ccc(-c3ccc4[nH]ncc4c3)cc2)C1 [compound 431, 6-{[(3S)-1-(Cyclopropylcarbonyl)pyrrolidin-3-yl]methyl}-5-[4-(1H-indazol-5-yl)phenyl]-4,6-diazaspiro[2.4]hept-4-en-7-one] | – | – | > 10 µM | 0.204 µM
17 | O=C(C1CC1)N1CC(CN2C(=O)C3(CC3)N=C2c2ccc(-c3ccc4ccc(=O)[nH]c4c3)cc2)C1 [compound 840] | – | – | > 3.02 µM | > 3.02 µM
18 | Cn1ncc2cc(-c3ccc(C4=NC5(CC5)C(=O)N4CC4CCN(C(=O)C5CC5)CC4)cc3)ccc21 [compound 19, 6-{[1-(Cyclopropylcarbonyl)piperidin-4-yl]methyl}-5-[4-(1-methyl-1H-indazol-5-yl)phenyl]-4,6-diazaspiro[2.4]hept-4-en-7-one] | – | – | > 6.17 µM | 4.68 µM
19 | Cc1cc(-c2ccc(-c3cnn(C4CCC4)c3)cc2)ccc1C1=NC2(CC2)C(=O)N1CC1CN(C(=O)C2CC2)C1 [compound 330, 5-(4′-(1-cyclobutyl-1H-pyrazol-4-yl)-3-methyl-[1,1′-biphenyl]-4-yl)-6-((1-(cyclopropanecarbonyl)azetidin-3-yl)methyl)4,6-diazaspiro[2.4]hept-4-en-7-one] | – | – | ~6.17 µM | 0.0324 µM
20 | O=C(N1CC(CN2C(=O)C3(CC3)N=C2c2ccc(-c3ccc4c(cnn4CCO)c3)cc2F)C1)C1(O)CC1 [compound 837, 5-(2-fluoro-4-(1-(2-hydroxyethyl)-1H-indazol-5-yl)phenyl)-6-((1-(1-hydroxycyclopropanecarbonyl)azetidin-3-yl)methyl)-4,6-diazaspiro[2.4]hept-4-en-7-one] | – | – | > 3.02 µM | 1.23 µM
21 | COc1ccc(-c2ccc(C3=NC4(CC4)C(=O)N3CC3CCN(C(=O)C4CC4)CC3)cc2)cc1 [compound 99] | 61.4% | 4.68 µM | – | –
22 | COC(=O)N1CC(CN2C(=O)C3(CCOCC3)N=C2c2ccc(-c3ccc4occc4c3)cc2)C1 [compound 928] | 10% | > 10 µM | – | –
